Like-named read-outs stand apart in the source and are kept apart here.
How the values were obtained:
[1] = tested on: Puccinia triticina; assay: Wheat brown rust (PUCCRT) disease control on wheat seedlings; type: in vivo; settings: read-out: PUCCRT disease control rating (% Control); for pest or weed control at 121.5 g/ha: 121.5 g/H, low volume (track spray) application; for pest or weed control at 100 ppm: high volume application
[2] = tested on: Septoria tritici; assay: Leaf blotch of wheat (SEPTTR) disease control on wheat seedlings; type: in vivo, Mycosphaerella graminicola (anamorph Septoria tritici); settings: Zymoseptoria tritici, read-out: SEPTTR disease control rating (% Control); for pest or weed control at 121.5 g/ha: 121.5 g/H, low volume (track spray) application; for pest or weed control at 100 ppm: high volume application
Protocol: Evaluation of Fungicidal Activity: Leaf Blotch of Wheat (Mycosphaerella graminicola; Anamorph: Septoria tritici; Bayer Code […]) Technical grades of materials were dissolved in acetone, which were then mixed with nine volumes of water containing 110 ppm Triton X-100. The fungicide solutions were applied onto wheat seedlings using an automated booth sprayer to run-off. All sprayed plants were allowed to air dry prior to further handling. All fungicides were evaluated using the aforementioned method for their activity vs. all target diseases. Wheat leaf blotch and brown rust activity were also evaluated using track spray applications, in which case the fungicides were formulated as EC formulations, containing 0.1% Trycol 5941 in the spray solutions. Wheat plants (variety Yuma) were grown from seed in a greenhouse in 50% mineral soil/50% soil-less Metro mix until the first leaf was fully emerged, with 7-10 seedlings per pot. These plants were inoculated with an aqueous spore suspension of Septoria tritici either prior to or after fungicide treatments. After inoculation the plants were kept in 100% relative humidity (one day in a dark dew chamber followed by two to three days in a lighted dew chamber at 20° C.) to permit spores to germinate and infect the leaf. The plants were then transferred to a greenhouse set at 20° C. for disease to develop. When disease symptoms were fully expressed on the 1st leaves of untreated plants, infection levels were assessed on a scale of 0 to 100 percent disease severity. Percent disease control was calculated using the ratio of disease severity on treated plants relative to untreated plants.

## CCCO[C@H]1COC[C@H](NC(=O)c2nccc(OC)c2OCOC(C)=O)C(=O)O[C@@H](C)[C@@H]1Cc1ccc(F)cc1 [Compound 62]
[1]; 24 h, 1DP (1 Day Protectant)
  pest or weed control at 121.5 g/ha: > 70%
[1]; 72 h, 3DC (3 Day Curative)
  pest or weed control at 121.5 g/ha: > 70%
[2]; 24 h, 1DP (1 Day Protectant)
  pest or weed control at 121.5 g/ha: > 70%
[2]; 72 h, 3DC (3 Day Curative)
  pest or weed control at 121.5 g/ha: > 70%

## CCCC[C@H]1[C@H](C)OC(=O)[C@@H](NC(=O)c2nccc(OC)c2OCOC(C)=O)COC[C@@H]1OCc1ccccc1 [Compound 40]
[1]; 24 h, 1DP (1 Day Protectant)
  pest or weed control at 121.5 g/ha: > 70%
[1]; 72 h, 3DC (3 Day Curative)
  pest or weed control at 121.5 g/ha: > 70%
[2]; 24 h, 1DP (1 Day Protectant)
  pest or weed control at 121.5 g/ha: > 70%
[2]; 72 h, 3DC (3 Day Curative)
  pest or weed control at 121.5 g/ha: > 70%

## COc1ccnc(C(=O)N[C@H]2COC[C@H](OCC(C)C)[C@@H](Cc3ccccc3)[C@H](C)OC2=O)c1OCOC(C)=O [Compound 85]
[1]; 24 h, 1DP (1 Day Protectant)
  pest or weed control at 100 ppm: > 70%
  pest or weed control at 121.5 g/ha: > 70%
[1]; 72 h, 3DC (3 Day Curative)
  pest or weed control at 100 ppm: > 70%
  pest or weed control at 121.5 g/ha: > 70%
[2]; 24 h, 1DP (1 Day Protectant)
  pest or weed control at 100 ppm: < 70%
  pest or weed control at 121.5 g/ha: > 70%
[2]; 72 h, 3DC (3 Day Curative)
  pest or weed control at 100 ppm: > 70%
  pest or weed control at 121.5 g/ha: > 70%

## CCCO[C@H]1COC[C@H](NC(=O)c2nccc(OC)c2OCOC(=O)COCC)C(=O)O[C@@H](C)[C@@H]1Cc1ccc(F)cc1 [Compound 8]
[1]; 24 h, 1DP (1 Day Protectant)
  pest or weed control at 121.5 g/ha: > 70%
[1]; 72 h, 3DC (3 Day Curative)
  pest or weed control at 121.5 g/ha: > 70%
[2]; 24 h, 1DP (1 Day Protectant)
  pest or weed control at 121.5 g/ha: > 70%
[2]; 72 h, 3DC (3 Day Curative)
  pest or weed control at 121.5 g/ha: > 70%

## COc1ccnc(C(=O)N[C@H]2COC[C@H](Oc3ccccc3)[C@@H](CCC(C)C)[C@H](C)OC2=O)c1OC(C)=O [Compound 47]
[1]; 24 h, 1DP (1 Day Protectant)
  pest or weed control at 121.5 g/ha: > 70%
[1]; 72 h, 3DC (3 Day Curative)
  pest or weed control at 121.5 g/ha: < 70%
[2]; 24 h, 1DP (1 Day Protectant)
  pest or weed control at 121.5 g/ha: > 70%
[2]; 72 h, 3DC (3 Day Curative)
  pest or weed control at 121.5 g/ha: > 70%

## CCCC[C@H]1[C@H](C)OC(=O)[C@@H](NC(=O)c2nccc(OC)c2O)COC[C@@H]1OCC1CC1 [Compound 3]
[1]; 24 h, 1DP (1 Day Protectant)
  pest or weed control at 100 ppm: > 70%
[1]; 72 h, 3DC (3 Day Curative)
  pest or weed control at 100 ppm: > 70%
[2]; 24 h, 1DP (1 Day Protectant)
  pest or weed control at 100 ppm: > 70%
[2]; 72 h, 3DC (3 Day Curative)
  pest or weed control at 100 ppm: < 70%

## COc1ccnc(C(=O)N[C@H]2COC[C@H](OCC3CC3)[C@@H](Cc3ccccc3)[C@H](C)OC2=O)c1OCOC(C)=O [Compound 80]
[1]; 24 h, 1DP (1 Day Protectant)
  pest or weed control at 100 ppm: > 70%
  pest or weed control at 121.5 g/ha: > 70%
[1]; 72 h, 3DC (3 Day Curative)
  pest or weed control at 100 ppm: > 70%
  pest or weed control at 121.5 g/ha: > 70%
[2]; 24 h, 1DP (1 Day Protectant)
  pest or weed control at 100 ppm: > 70%
  pest or weed control at 121.5 g/ha: > 70%
[2]; 72 h, 3DC (3 Day Curative)
  pest or weed control at 100 ppm: > 70%
  pest or weed control at 121.5 g/ha: > 70%

## CCCO[C@H]1COC[C@H](NC(=O)c2nccc(OC)c2OC(C)=O)C(=O)O[C@@H](C)[C@@H]1Cc1ccc(F)cc1 [Compound 20]
[1]; 24 h, 1DP (1 Day Protectant)
  pest or weed control at 121.5 g/ha: > 70%
[1]; 72 h, 3DC (3 Day Curative)
  pest or weed control at 121.5 g/ha: > 70%
[2]; 24 h, 1DP (1 Day Protectant)
  pest or weed control at 121.5 g/ha: > 70%
[2]; 72 h, 3DC (3 Day Curative)
  pest or weed control at 121.5 g/ha: > 70%

## CCCC[C@H]1[C@H](C)OC(=O)[C@@H](NC(=O)c2nccc(OC)c2O)COC[C@@H]1OCc1ccccc1 [Compound 37]
[1]; 24 h, 1DP (1 Day Protectant)
  pest or weed control at 100 ppm: > 70%
[1]; 72 h, 3DC (3 Day Curative)
  pest or weed control at 100 ppm: > 70%
[2]; 24 h, 1DP (1 Day Protectant)
  pest or weed control at 100 ppm: > 70%
[2]; 72 h, 3DC (3 Day Curative)
  pest or weed control at 100 ppm: > 70%

## COc1ccnc(C(=O)N[C@H]2COC[C@H](Oc3ccc(C)cc3)[C@@H](Cc3ccc(F)cc3)[C@H](C)OC2=O)c1OC(C)=O [Compound 10]
[1]; 24 h, 1DP (1 Day Protectant)
  pest or weed control at 121.5 g/ha: > 70%
[1]; 72 h, 3DC (3 Day Curative)
  pest or weed control at 121.5 g/ha: < 70%
[2]; 24 h, 1DP (1 Day Protectant)
  pest or weed control at 121.5 g/ha: > 70%
[2]; 72 h, 3DC (3 Day Curative)
  pest or weed control at 121.5 g/ha: > 70%

## COCCC(=O)Oc1c(OC)ccnc1C(=O)N[C@H]1COC[C@H](Oc2ccccc2)[C@@H](Cc2ccccc2)[C@H](C)OC1=O [Compound 73]
[1]; 24 h, 1DP (1 Day Protectant)
  pest or weed control at 121.5 g/ha: > 70%
[1]; 72 h, 3DC (3 Day Curative)
  pest or weed control at 121.5 g/ha: > 70%
[2]; 24 h, 1DP (1 Day Protectant)
  pest or weed control at 121.5 g/ha: > 70%
[2]; 72 h, 3DC (3 Day Curative)
  pest or weed control at 121.5 g/ha: > 70%

## COc1ccnc(C(=O)N[C@H]2COC[C@H](OCc3ccccc3)[C@@H](CCC(C)C)[C@H](C)OC2=O)c1OCOC(C)=O [Compound 14]
[1]; 24 h, 1DP (1 Day Protectant)
  pest or weed control at 121.5 g/ha: > 70%
[1]; 72 h, 3DC (3 Day Curative)
  pest or weed control at 121.5 g/ha: > 70%
[2]; 24 h, 1DP (1 Day Protectant)
  pest or weed control at 121.5 g/ha: > 70%
[2]; 72 h, 3DC (3 Day Curative)
  pest or weed control at 121.5 g/ha: > 70%

## CCCC[C@H]1[C@H](C)OC(=O)[C@@H](NC(=O)c2nccc(OC)c2OCOC(C)=O)COC[C@@H]1OC(=O)C(C)C [Compound 43]
[1]; 24 h, 1DP (1 Day Protectant)
  pest or weed control at 121.5 g/ha: > 70%
[1]; 72 h, 3DC (3 Day Curative)
  pest or weed control at 121.5 g/ha: > 70%
[2]; 24 h, 1DP (1 Day Protectant)
  pest or weed control at 121.5 g/ha: < 70%
[2]; 72 h, 3DC (3 Day Curative)
  pest or weed control at 121.5 g/ha: > 70%
